Test results taken from patent US20230058623A1, “NOVEL HETEROARYL-TRIAZOLE COMPOUNDS AS PESTICIDES” (Bayer Aktiengesellschaft, priority 2019, published 2023).

Legend:
Assay type in all cases: in vivo
[1] = test system: adult engorged female ticks (Rhipicephalus microplus); assay: Rhipicephalus (Boophilus) microplus injection test; settings: 168 h, application rate 4 μg/tick, egg deposition after 7 days, read-out: activity (efficacy: infertile eggs)
Outline: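 Abdominal injection, 1 μL compound/DMSO, n=5 engorged adult females; climate-chamber incubation. Readout d7: fertile egg laying; doubtful eggs held to hatch (~42 d). % efficacy = infertile eggs (100% all infertile).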

[2] = test system: Rhipicephalus (Boophilus) microplus larvae (strain Parkhurst, resistant against synthetic pyrethroids); assay: Rhipicephalus (Boophilus) microplus in-vitro contact test, larval cattle tick; settings: after 48 hours, read-out: activity (efficacy: larvae dead or moribund); for pest or weed control at 1 µg/cm2, 100 g/ha: application rate 1 μg/cm^2 (=100 g/ha); for pest or weed control at 5 µg/cm2, 500 g/ha: application rate 5 μg/cm^2 (=500 g/ha)
Outline: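 Pyrethroid-resistant Parkhurst larvae, 20–50 per tube, were kept 48 h at 27 °C and 85% relative humidity in glass tubes whose inner walls carried a dried acetone film of compound (900 ppm giving 5 μg/cm^2). Dead or moribund larvae, judged by loss of negative geotactic behavior, set percent efficacy.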

[3] = test system: cattle ticks (Rhipicephalus microplus) strain Parkhurst, SP-resistant; assay: Rhipicephalus (Boophilus) microplus dip test; settings: 168 h, application rate 100 ppm, egg deposition after 7 days, read-out: activity (efficacy: infertile eggs)
Description: Rhipicephalus (Boophilus) microplus—Dip Test
Test animal: cattle ticks (Rhipicephalus microplus) strain Parkhurst, SP-resistant
(§1) Solvent: dimethyl sulfoxide
To produce a suitable preparation of active compound, 10 mg of active compound are dissolved in 0.5 mL solvent, and the concentrate is diluted with water to the desired concentration.
This compound solution is pipetted into tubes. 8-10 engorged, adult, female cattle ticks (Rhipicephalus microplus) are placed in perforated tubes. These tubes are immersed in the aqueous compound solution until the ticks are completely moistened. After the liquid has drained off, the ticks are transferred to a filter paper in a plastic tray and stored in a climate chamber.
After 7 days egg deposition of fertile eggs is monitored. Eggs where fertility is not visible are stored in a climate chamber till hatching after about 42 days. An efficacy of 100% means all eggs are infertile; 0% means all eggs are fertile.

[4] = test system: adult unfed cat fleas (Ctenocephalides felis); assay: Ctenocephalides felis oral test; settings: 48 h, read-out: activity (mortality)
Description: Ctenocephalides felis—Oral Test
as §1
To produce a suitable preparation of active compound, 10 mg of active compound are dissolved in 0.5 mL solvent, and the concentrate is diluted with citrated cattle blood to the desired concentration.
Approximately 20 adult unfed cat fleas (Ctenocephalides felis) are placed in a flea chamber whose top and bottom is covered with gauze. A chamber whose bottom is sealed with parafilm, is filled with the blood-compound solution and placed on top of the flea chamber, so that the fleas can suck the blood. The blood chamber is heated to 37° C. whereas the flea chamber is kept at room temperature.
After 2 days mortality in % is determined. 100% means all the fleas have been killed; 0% means none of the fleas have been killed.

[5] = test system: green peach aphid (Myzus persicae); assay: Myzus persicae oral test; settings: 120 h, read-out: activity (mortality)
Outline: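 Aphids of mixed population ingest the compound preparation by sucking through a parafilm sheet stretched over wells holding test solution plus IPL41 insect medium (33%+15% sugar). Kill rate in percent is determined five days later.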

[6] = test system: green peach aphid (Myzus persicae); assay: Myzus persicae spray test; settings: foliar, 120 h, after 5 days, Chinese cabbage leaf disks; for mortality at 100 g/ha: application rate 100 g/ha, read-out: activity (mortality)
Outline: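 Percent kill was recorded 5 days after spraying. Test solutions, prepared with solvent and diluted in 1000 ppm emulsifier water, were applied to Brassica pekinensis leaf disks carrying mixed-instar green peach aphids.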

[7] = test system: adult flies Musca domestica strain WHO-N; assay: Musca domestica test (MUSCDO surface treatment & contact assay); settings: 24 hours after contact, read-out: efficacy (mortality); for mortality at 20 mg/m2: surface concentration 20 mg/m^2, exposure 30 minutes
Description: Musca domestica Test (MUSCDO Surface Treatment & Contact Assay)
(§2) Solvent: Aceton+2000 ppm rapeseed oil methyl ester (RME)
(§3) In order to produce a sufficient, active ingredient containing solution it is necessary to solve the test compound in the solvent-mix (acetone at 2 mg/ml/RME 2000 ppm). This solution is pipetted onto a glazed tile and after evaporation of the acetone, adult flies of the species Musca domestica strain WHO-N are placed onto the dried surface. The exposure time is 30 minutes.
(§4) Mortality in percent (%) is determined 24 hours after contact of the insects to the treated surface. 100% mortality means that all tested insects are dead, whereas 0% means that no insect died.

[8] = test system: brown planthopper (Nilaparvata lugens); assay: Nilaparvata lugens spray test; settings: 96 h, after 4 days, rice plants; for mortality at 500 g/ha: application rate 500 g/ha
Description: Nilaparvata lugens—Spray Test
To produce a suitable preparation of active compound, 1 part by weight of active compound is mixed with the stated amount of solvents and is diluted with water, containing an emulsifier concentration of 1000 ppm, to the desired concentration. Further test concentrations are prepared by dilution with emulsifier containing water.
Rice plants (Oryza sativa) are sprayed with a preparation of the active ingredient of the desired concentration and the plants are infested with the brown planthopper (Nilaparvata lugens).
After 4 days mortality in % is determined. 100% means all planthoppers have been killed and 0% means none of the planthoppers have been killed.

[9] = test system: fall armyworm larvae (Spodoptera frugiperda); assay: Spodoptera frugiperda spray test; settings: 168 h, application rate 100 g/ha, after 7 days, maize leaf sections
Outline: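 Read-out: % larval mortality at day 7, where 100% means all killed and 0% none killed. Compound diluted in water with 1000 ppm emulsifier, sprayed onto Zea mays leaf sections; dried sections then infested with S. frugiperda larvae.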

[10] = test system: larvae of the banded cucumber beetle (Diabrotica balteata); assay: Diabrotica balteata spray test; settings: 168 h, after 7 days, wheat seeds, read-out: activity (efficacy: seedlings grown); for pest or weed control at 32 µg/disc, 100 g/ha: application rate 100 g/ha (=32 μg/well)
Outline: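 Efficacy (%) read 7 days after infesting treated seedlings with 10-20 banded cucumber beetle larvae, 100% meaning growth as in uninfected untreated control and 0% no growth. Test solutions in water containing 1000 ppm emulsifier were sprayed onto wheat seeds germinated for 1 day on agar.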

[11] = test system: larvae of the southern green stink bug (Nezara viridula); assay: Nezara viridula spray test; settings: 96 h, after 4 days, barley plants; for mortality at 500 g/ha: application rate 500 g/ha, read-out: activity (mortality)
Outline: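 Barley plants sprayed with the active compound in emulsifier-containing water, then infested with stink bug larvae. Mortality scored in % after 4 days, with 100% meaning all insects killed.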

[12] = test system: adult cat fleas (Ctenocephalides felis); assay: Ctenocephalides felis in-vitro contact test, adult cat flea; settings: application rate 5 μg/cm^2 (=500 g/ha), after 48 hours, read-out: activity (efficacy: fleas dead or moribund)
Outline: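 After 48 h of room-temperature exposure in tubes whose walls carried dried compound residue (5 μg/cm^2, from 900 ppm acetone solution), adult cat fleas (5-10 per tube) were heat-challenged at 45-50° C up to 5 min. Fleas unable to climb away were counted dead or moribund, expressed as % efficacy.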

[13] = test system: adult brown dog ticks (Rhipicephalus sanguineus); assay: Rhipicephalus sanguineus in-vitro contact test, adult brown dog ticks; settings: application rate 5 μg/cm^2 (=500 g/ha), after 48 hours, read-out: activity (efficacy: ticks dead or moribund)
Outline: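 Read-out: % efficacy as dead or moribund ticks, judged 48 h after exposure by failure to climb away from a 45-50° C heating plate within 5 min. Tubes were coated with acetone solution (900 ppm = 5 μg/cm^2 surface dose) and held 5-10 adults each at room temperature.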

[14] = test system: adult mosquitoes Aedes aegypti strain MONHEIM; assay: Aedes aegypti test (AEDSAE surface treatment & contact assay); settings: 24 hours after contact, read-out: efficacy (mortality); for mortality at 20 mg/m2: surface concentration 20 mg/m^2, exposure 30 minutes
Description: Aedes aegypti Test (AEDSAE Surface Treatment & Contact Assay)
as §2
as §3, with “mosquitoes” for “flies”, “Aedes aegypti” for “Musca domestica”, “MONHEIM” for “WHO-N”
as §4

[15] = test system: adult mosquitoes Anopheles funestus strain FUMOZ-R; assay: Anopheles funestus test (ANPHFU surface treatment & contact assay); settings: surface concentration 20 mg/m^2, exposure 30 minutes, 24 hours after contact, read-out: efficacy (mortality)
Description: Anopheles funestus Test (ANPHFU Surface Treatment & Contact Assay)
as §2
as §3, with “mosquitoes” for “flies”, “Anopheles funestus” for “Musca domestica”, “FUMOZ-R (Hunt et al., Med. Vet. Entomol. 2005 September; 19(3): 271-275)” for “WHO-N”
as §4

[16] = surface concentration 4 mg/m^2, exposure 30 minutes

Row | Compound | pest or weed control at 1 µg/cm2, 100 g/ha [2] | pest or weed control at 5 µg/cm2, 500 g/ha [2] | mortality at 4 ppm [5] | mortality at 100 g/ha [6] | mortality at 20 mg/m2 [7] | mortality at 500 g/ha [8] | mortality at 100 g/ha [9] | pest or weed control at 32 µg/disc, 100 g/ha [10] | mortality at 500 g/ha [11] | pest or weed control at 5 µg/cm2 [12] | pest or weed control at 5 µg/cm2, 500 g/ha [13] | mortality at 20 mg/m2 [14] | further results
1 | C[C@H](NC(=O)c1cc(C(F)(F)F)cc(C(F)(F)F)c1)c1ncnn1-c1ccc(C(=O)N2CCC(O)C2)cn1 (stereo partly drawn) [Example I-13] | 100% | 100% | 100% | 100% | – | – | – | – | – | – | – | – | pest or weed control at 0.004 mg [1]: 100%; pest or weed control at 100 ppm [3]: 80%; mortality at 100 ppm [4]: 100%
2 | Cc1nc([C@H](C)NC(=O)c2cc(C(F)(F)F)cc(C(F)(F)F)c2)n(-c2cnc(C(=O)N3C[C@@H](C)O[C@@H](C)C3)cn2)n1 [Example I-138] | 100% | 100% | – | 90% | 80 to 100% | 100% | 100% | 100% | 100% | 100% | 100% | – | –
3 | CCc1nc([C@H](C)NC(=O)c2cc(C(F)(F)F)cc(C(F)(F)F)c2)n(-c2ccc(C(=O)N3CCOCC3)cn2)n1 [Example I-131] | 100% | 100% | – | 90% | 80 to 100% | 100% | 100% | 100% | 100% | 100% | 100% | 80 to 100% | –
4 | C[C@H](NC(=O)c1cc(C(F)(F)F)cc(S(C)(=O)=O)c1)c1ncnn1-c1ccc(C(=O)N2CCOCC2)cn1 [Example I-102] | – | – | 100% | 90% | – | – | 100% | 100% | – | 80% | – | 80 to 100% | mortality at 100 g/ha ([8]; application rate 100 g/ha): 90%; mortality at 4 mg/m2 [14, 16]: 80 to 100%; mortality at 100 g/ha ([11]; application rate 100 g/ha): 100%
5 | CC(NC(=O)c1cc(C(F)(F)F)cc(C(F)(F)F)c1)c1nc(C(F)F)nn1-c1ccc(C(=O)N2CCOCC2)cn1 (racemic) [Example I-83, N-[1-[5-(Difluoromethyl)-2-[5-(morpholine-4-carbonyl)-2-pyridyl]-1,2,4-triazol-3-yl]ethyl]-3,5-bis(trifluoromethyl)benzamide] | – | – | 100% | – | 80 to 100% | – | 100% | 100% | 100% | – | – | – | pest or weed control at 0.004 mg [1]: 100%; mortality at 100 ppm [4]: 100%; pest or weed control at 160 µg/disc, 500 g/ha ([10]; application rate 500 g/ha (=160 μg/well)): 100%; mortality at 20 mg/m2 [15]: 80 to 100%; mortality at 20 ppm [5]: 100%; mortality at 500 g/ha ([6]; application rate 500 g/ha): 90%
6 | C[C@H](NC(=O)c1cc(C(F)(F)F)cc(C(F)(F)F)c1)c1ncnn1-c1ccc(C(=O)N2CCN(C)C(=O)C2)cn1 [Example I-79] | – | – | 100% | – | 80 to 100% | 100% | 100% | – | 100% | – | – | 80 to 100% | mortality at 20 mg/m2 [15]: 80 to 100%
7 | CCc1nc([C@H](C)NC(=O)c2cc(C(F)(F)F)cc(C(F)(F)F)c2)n(-c2ccc(C(=O)N3C[C@@H](C)O[C@@H](C)C3)cn2)n1 [Example I-130] | 100% | 100% | – | 90% | 80 to 100% | 100% | 100% | 100% | 100% | 100% | 100% | – | mortality at 4 mg/m2 [7, 16]: 80 to 100%
8 | C[C@H](NC(=O)c1cc(C(F)(F)F)cc(C(F)(F)F)c1)c1ncnn1-c1ccc(C(=O)N2CC(C)(C)OC(C)(C)C2)cn1 [Example I-77] | 100% | 100% | – | – | 80 to 100% | 100% | 100% | 100% | 100% | 100% | 80% | – | –
